One experiment has as its system PANC-1 cells. Put plainly: Flow cytometric (FACS) analysis for insulin, parental PANC-1 cells. The settings on record: presence or absence of GLP-1; equivalent to assay background. In kind it is cell-based, human. On the procedure:
(§1) For fluorescence-activated cells sorting (FACS) analysis, cells were cultured in the presence of GLP-1 (10 nM), or vehicle, for 72 h, then washed with cold PBS (pH 7.4; three times) and incubated overnight, on ice, in PBS with 2% paraformaldehyde. After centrifugation, the cell pellet was resuspended in 400 μl of cold 0.1% Triton diluted in FACS buffer (PBS with 2% FCS). After several centrifugation and washes, the cells were resuspended in the assay buffer with of 10 μl of fluorescent-conjugated insulin antibody (Cat N. FM205, FITC: Chromaprobe, Inc; Mountain View, Calif.), in the presence of 10 μl of blocking antibody (anti-mouse IgG; Organon Teknika-Cappel, West Chester, Pa.). Control samples were treated with PBS, without the primary antibody, and then incubated with an isotope-matched FITC-conjugated control antibody (murine IgG; Chromaprobe Inc., Mountain View, Calif.). Flow cytometric analysis was performed with a FACScan[R] cytometer, using the LYSYS II program, and by fluorescence microscopy, as is well known in the art. See, e.g., E. Elstner, M. Linker-Israeli, J. Le, T. Umiel, P. Michl, J. W. Said, L. Binderup, J. C. […]

Another experiment relates to PANC-1/IDX-1 cells. Kind of experiment: Flow cytometric (FACS) analysis for insulin, PANC-1/IDX-1 cells. In kind it is cell-based, human. The conditions noted are these: GLP-1 10 nM, 72 h. On the procedure: PANC-1 cells were transfected with a pcDNA3 construct (Invitrogen; Carlsbad, Calif.) harboring the wild-type full-length IDX-1 cDNA using LipoTAXI (Catalog N. 204110; Mammalian Transfection Kit, Stratagene; La Jolla, Calif.). Control cells were transfected with the vector alone. The selection of positive (i.e. transfected) cells was carried out by culturing the cells in the presence of 400 μg/ml of G418 sulfate (GN-04, Omega; Tarzana, Calif.).
as §1, with “Control samples were treated with PBS, without the primary antibody, and then incubated with an isotope-matched FITC-conjugated control antibody (murine IgG; Chromaprobe Inc., Mountain View, Calif.).” left out, “art.” for “art. See, e.g., E. Elstner, M. Linker-Israeli, J. Le, T. Umiel, P. Michl, J. W. Said, L. Binderup, J. C.”
Background: Flow cytometry measures light scatter and fluorescence of single cells or particles in a stream.

glucagon-like peptide-1 [GLP-1]: the “cells containing insulin in the cytoplasm” value with PANC-1 cells is 1.4%. Further, in the experiment with PANC-1/IDX-1 cells, the “cultured cells converted from insulin negative to insulin positive” value amounted to 61.7%.

The values above are taken from patent US6642003B2, “Human glucose-dependent insulin-secreting cell line” (Cedars-Sinai Medical Center, priority 2001, dated 2003).
